Experimental data taken from BindingDB's records for doi:10.7270/Q24M92ZV (Nmmlsc, 2009).

Target: Ras-related C3 botulinum toxin substrate 1 (Mus musculus, UniProt P63001)
Assay: activated mutant Rac1 GTP binding inhibitors, SAR follow-up, biochemical, additional analogs, multiplex bead flow cytometry (AID 2039)

SMILES	EC50 [µM]
O=C1NC(=O)/C(=C2/C(=O)Nc3ccccc32)N1	11.6
O=C1N=c2ccccc2=C1c1[nH]c2ccccc2c1NO [3-[3-(hydroxyamino)-1H-indol-2-yl]-2-indolone]	30
O=C1Nc2c(Br)cccc2C1=C1Nc2ccccc2C1=O	27.6
O=C1NC(=S)N/C1=C1\C(=O)Nc2ccccc21 [(3Z)-3-(5-oxo-2-sulfanylideneimidazolidin-4-ylidene)-1H-indol-2-one]	7
O=C1N=c2c(F)cccc2=C1c1[nH]c2ccccc2c1NO [7-fluoro-3-[3-(hydroxyamino)-1H-indol-2-yl]-2-indolone]	31.6
O=C1Nc2ccccc2/C1=C1/Nc2ccccc2C1=O [2-[(3Z)-2-oxo-2,3-dihydro-1H-indol-3-ylidene]-2,3-dihydro-1H-indol-3-one]	30
O=C1N=c2c(Cl)cccc2=C1c1[nH]c2ccccc2c1NO [7-chloro-3-[3-(hydroxyamino)-1H-indol-2-yl]-2-indolone]	30
O=C1Nc2c(F)cccc2C1=C1Nc2ccccc2C1=O	30
O=C1N=c2c(Br)cccc2=C1c1[nH]c2ccccc2c1NO [7-bromanyl-3-[3-(oxidanylamino)-1H-indol-2-yl]indol-2-one]	30
O=C1N=c2ccc(Br)cc2=C1c1[nH]c2ccccc2c1NO [5-bromanyl-3-[3-(oxidanylamino)-1H-indol-2-yl]indol-2-one]	32.7
O=C1Nc2c(Cl)cccc2C1=C1Nc2ccccc2C1=O	30
O=C1Nc2ccc(Br)cc2C1=C1Nc2ccccc2C1=O	12.2
